US12174198B2, “Methods of characterizing condensate-associated characteristics of compounds and uses thereof” (Dewpoint Therapeutics, Inc., priority 2019, dated 2024)
Structures can show the parent of a compound that is named as a salt.

Tests used:
[1] = test system: FUS-SNAP condensates versus PGL-3 condensates; experiment: Condensate preference: ratio of FUS-SNAP I-in:I-out to PGL-3 I-in:I-out; format: physicochemical; conditions: average FUS-SNAP I-in:I-out divided by average PGL-3 I-in:I-out
Summary of the method: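 For each condensate type, mean intensity inside the target condensates is divided by the intensity outside (I-in:I-out). The ratios from two experiment days are averaged. Preference is expressed as the FUS-SNAP ratio relative to the PGL-3 ratio.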

FUS-SNAP condensates = target: T1, FUS-SNAP condensates (Homo sapiens, UniProt P35637); experiment: Fluorescence imaging of dye partitioning in FUS-SNAP condensates (I-in, I-out); format: physicochemical; conditions: for Ratio of intensity inside:outside FUS-SNAP Condensates Day 1 / Ratio of intensity inside:outside FUS-SNAP Condensates Day 2 / Ratio of intensity inside:outside FUS-SNAP Condensates Average: I-in:I-out; for Ratio of intensity inside:outside FUS-SNAP Condensates Day 1 / Ratio of intensity inside:outside FUS-SNAP Condensates Day 2 / Ratio of intensity inside:outside FUS-SNAP Condensates Average / Intensity Inside with Dye Average / Intensity Inside with Dye 1 / Intensity Inside with Dye 2 / Intensity Inside with Dye 3 / Intensity Outside with Dye Average / Intensity Outside with Dye 1 / Intensity Outside with Dye 2 / Intensity Outside with Dye 3: 10 μM dye; for Ratio of intensity inside:outside FUS-SNAP Condensates Average: average of two days; for Intensity Inside with Dye Average / Intensity Inside with Dye 1 / Intensity Inside with Dye 2 / Intensity Inside with Dye 3 / Intensity Inside Dye-No Dye: inside FUS-SNAP condensate; for Intensity Inside with Dye Average / Intensity Inside with Dye 1 / Intensity Inside with Dye 2 / Intensity Inside with Dye 3 / Intensity Outside with Dye Average / Intensity Outside with Dye 1 / Intensity Outside with Dye 2 / Intensity Outside with Dye 3: 5 μM protein; for Intensity Inside with Dye Average / Intensity Outside with Dye Average: average of three images; for Intensity Inside with Dye Average / Intensity Inside with Dye 1 / Intensity Inside with Dye 2 / Intensity Inside with Dye 3 / Intensity Inside Dye-No Dye / Intensity Outside with Dye Average / Intensity Outside with Dye 1 / Intensity Outside with Dye 2 / Intensity Outside with Dye 3 / Intensity Outside (Dye-No Dye): one day of experiments; for Intensity Inside with Dye 1 / Intensity Outside with Dye 1: image 1; for Intensity Inside with Dye 2 / Intensity Outside with Dye 2: image 2; for Intensity Inside with Dye 3 / Intensity Outside with Dye 3: image 3; for Intensity Inside Dye-No Dye / Intensity Outside (Dye-No Dye): background corrected; for Intensity Outside with Dye Average / Intensity Outside with Dye 1 / Intensity Outside with Dye 2 / Intensity Outside with Dye 3 / Intensity Outside (Dye-No Dye): outside FUS-SNAP condensate
T1 sequence (P35637 1-526): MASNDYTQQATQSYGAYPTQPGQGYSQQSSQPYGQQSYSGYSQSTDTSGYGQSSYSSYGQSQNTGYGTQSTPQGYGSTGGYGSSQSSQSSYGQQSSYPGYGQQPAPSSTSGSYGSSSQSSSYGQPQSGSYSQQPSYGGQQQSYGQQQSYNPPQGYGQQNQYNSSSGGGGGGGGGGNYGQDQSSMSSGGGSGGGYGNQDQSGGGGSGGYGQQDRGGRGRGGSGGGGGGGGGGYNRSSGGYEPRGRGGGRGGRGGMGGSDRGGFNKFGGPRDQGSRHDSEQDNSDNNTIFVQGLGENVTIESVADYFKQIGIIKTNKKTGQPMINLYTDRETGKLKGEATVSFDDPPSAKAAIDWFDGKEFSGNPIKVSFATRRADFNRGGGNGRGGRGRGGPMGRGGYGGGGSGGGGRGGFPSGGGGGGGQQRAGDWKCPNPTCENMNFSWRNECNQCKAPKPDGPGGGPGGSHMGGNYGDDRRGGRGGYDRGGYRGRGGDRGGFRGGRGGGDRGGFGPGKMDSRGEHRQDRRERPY
Summary of the method: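 Partitioning read by spinning-disk confocal imaging (60× oil, dye-specific exposure 1-1000 ms) of condensates formed from 5 μM protein (FUS-SNAP or untagged PGL-3) plus 10 μM dye, 75 mM KCl, 1% DMSO, pH 7.25. Background-subtracted intensities inside and beside one condensate per image, three images averaged.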

Row | Compound | Ratio of FUS-SNAP:PGL-3 [1] | Ratio of intensity inside:outside FUS-SNAP Condensates Day 1 (FUS-SNAP condensates) | Ratio of intensity inside:outside FUS-SNAP Condensates Day 2 (FUS-SNAP condensates) | Ratio of intensity inside:outside FUS-SNAP Condensates Average (FUS-SNAP condensates) | Intensity Inside with Dye Average (FUS-SNAP condensates) | Intensity Inside with Dye 1 (FUS-SNAP condensates) | Intensity Inside with Dye 2 (FUS-SNAP condensates) | Intensity Inside with Dye 3 (FUS-SNAP condensates) | Intensity Inside Dye-No Dye (FUS-SNAP condensates) | Intensity Outside with Dye Average (FUS-SNAP condensates) | Intensity Outside with Dye 1 (FUS-SNAP condensates) | Intensity Outside with Dye 2 (FUS-SNAP condensates) | Intensity Outside with Dye 3 (FUS-SNAP condensates) | Intensity Outside (Dye-No Dye) (FUS-SNAP condensates)
1 | O=C1OC2(c3ccc(O)cc3Oc3cc(O)ccc32)c2ccccc21 [Dye 6, Fluorescein] | 1.5 | 1.7 | 1.4 | 1.5 | 6277.1 | 6328.8 | 6300.8 | 6201.7 | 6141.9 | 3784.7 | 3771.1 | 3840.2 | 3742.7 | 3680.6
2 | CCN(CC)c1ccc2c(-c3ccccc3C(=O)O)c3ccc(=[N+](CC)CC)cc-3oc2c1 [Dye 16, Rhodamine B] | 3.0 | 4.4 | 3.8 | 4.1 | 2041.4 | 2154.5 | 2074.7 | 1895.0 | 1941.7 | 540.2 | 546.8 | 508.3 | 565.6 | 440.3

Results, then the compound that gave them:

Row | Ratio of FUS-SNAP:PGL-3 [1] | Ratio of intensity inside:outside FUS-SNAP Condensates Day 1 (FUS-SNAP condensates) | Ratio of intensity inside:outside FUS-SNAP Condensates Day 2 (FUS-SNAP condensates) | Ratio of intensity inside:outside FUS-SNAP Condensates Average (FUS-SNAP condensates) | Intensity Inside with Dye Average (FUS-SNAP condensates) | Intensity Inside with Dye 1 (FUS-SNAP condensates) | Intensity Inside with Dye 2 (FUS-SNAP condensates) | Intensity Inside with Dye 3 (FUS-SNAP condensates) | Intensity Inside Dye-No Dye (FUS-SNAP condensates) | Intensity Outside with Dye Average (FUS-SNAP condensates) | Intensity Outside with Dye 1 (FUS-SNAP condensates) | Intensity Outside with Dye 2 (FUS-SNAP condensates) | Intensity Outside with Dye 3 (FUS-SNAP condensates) | Intensity Outside (Dye-No Dye) (FUS-SNAP condensates) | Compound
3 | 1.2 | 1.3 | 1.4 | 1.3 | 2970.4 | 3123.1 | 2956.9 | 2831.2 | 2835.2 | 2277.6 | 2174.8 | 2322.7 | 2335.1 | 2173.5 | COC(=O)c1ccccc1-c1c2ccc(=N)cc-2oc2cc(N)ccc12.Cl [Dye 14, Rhodamine 123]
4 | 3.2 | 6.1 | 5.9 | 6.0 | 4956.7 | 4695.6 | 5663.6 | 4511.0 | 4857.1 | 902.4 | 808.3 | 1011.5 | 887.5 | 802.5 | O=C([O-])c1ccccc1C1=c2cc3c4c(c2Oc2c1cc1c5c2CCCN5CCC1)CCC[N+]=4CCC3 [Dye 17, Rhodamine 101 inner salt]
5 | 3.2 | 7.6 | 11.0 | 9.3 | 15051.4 | 15394.5 | 13908.5 | 15851.1 | 14919.5 | 2092.2 | 2064.2 | 1988.2 | 2224.3 | 1959.9 | N#CC1=c2cc3c4c(c2Oc2c1cc1c5c2CCCN5CCC1)CCC[N+]=4CCC3 [Dye 18, Rhodamine 800]
